Experimental data published in patent publication US20080287430A1, “Furan Compounds Useful As Ep1 Receptor Antagonists” (priority 2005, published 2008).
Where a name gives a salt, the structure may show the parent alone.

Assays:
human EP1 receptor [1] = target: T1, human EP1 receptor (Homo sapiens, UniProt P34995); assay: Binding assay for the human prostanoid EP1 receptor (competition with [3H]-PGE2); conditions: binding to human EP1 receptor, [3H]-PGE2 competition, CHO-K1 cell membranes; averages of a number of experiments; read-out: pIC50 value (converted)
T1 construct: expressed in transfected cells; host or cells: CHO-K1
T1 sequence (P34995 1-402): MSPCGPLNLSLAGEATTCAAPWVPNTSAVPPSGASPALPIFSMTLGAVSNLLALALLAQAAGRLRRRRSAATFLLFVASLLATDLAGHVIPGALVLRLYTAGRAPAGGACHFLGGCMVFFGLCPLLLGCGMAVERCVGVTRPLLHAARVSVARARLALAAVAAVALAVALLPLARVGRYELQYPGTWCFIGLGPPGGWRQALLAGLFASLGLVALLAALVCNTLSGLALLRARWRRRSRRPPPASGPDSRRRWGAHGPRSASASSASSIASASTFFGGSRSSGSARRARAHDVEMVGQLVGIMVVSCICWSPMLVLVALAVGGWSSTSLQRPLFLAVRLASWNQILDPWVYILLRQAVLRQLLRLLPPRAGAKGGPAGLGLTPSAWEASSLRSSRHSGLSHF
Procedure: Competition assay using [^3H]-PGE2.
Compound potencies are determined using a radioligand binding assay. In this assay compound potencies are determined from their ability to compete with tritiated prostaglandin E2 ([^3H]-PGE2) for binding to the human EP1 receptor.
This assay utilises Chinese hamster ovary-K1 (CHO-K1) cells into which a stable vector containing the EP1 cDNA has previously been transfected. Cells are cultured in suitable flasks containing culture medium such as DMEM:F-12 supplemented with 10% v/v foetal calf serum, 2 mM L-glutamine, 0.25 mg/ml geneticin, 10 μg/ml puromycin and 10 μM indomethacin.
Cells are detached from the culture flasks by incubation in calcium and magnesium free phosphate buffered saline containing 1 mM disodium ethylenediaminetetraacetic acid (Na2EDTA) and 10 μM indomethacin for 5 min. The cells are isolated by centrifugation at 250×g for 5 mins and suspended in an ice cold buffer such as 50 mM Tris, 1 mM Na2EDTA, 140 mM NaCl, 10 μM indomethacin (pH 7.4). The cells are homogenised using a Polytron tissue disrupter (2×10 s burst at full setting), centrifuged at 48,000×g for 20 mins and the pellet containing the membrane fraction is washed (optional) three times by suspension and centrifugation at 48,000×g for 20 mins. The final membrane pellet is suspended in an assay buffer such as 10 mM 2-[N-morpholino]ethanesulphonic acid, 1 mM Na2EDTA, 10 mM MgCl2 (pH 6). Aliquots are frozen at −80° C. until required.
For the binding assay the cell membranes, competing compounds and [^3H]-PGE2 (3 nM final assay concentration) are incubated in a final volume of 100 μl for 30 min at 30° C. All reagents are prepared in assay buffer. Reactions are terminated by rapid vacuum filtration over GF/B filters using a Brandell cell harvester. The filters are washed with ice cold assay buffer, dried and the radioactivity retained on the filters is measured by liquid scintillation counting in Packard TopCount scintillation counter.
The data are analysed using non linear curve fitting techniques to determine the concentration of compound producing 50% inhibition of specific binding (IC50).

human EP1 receptor [2] = target: T1, human EP1 receptor; assay: human EP1 calcium mobilisation assay; assay type: cell-based; conditions: human EP1, PGE2-induced calcium mobilisation in CHO-K1 cells; free bases or sodium salts; averages of a number of experiments; read-out: functional pKi value (converted)
Procedure, shortened: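 CHO-K1 cells stably expressing human EP1, loaded with Fluo-4 after 24 h at 37° C; compounds added before PGE2 challenge. Inhibition of PGE2-induced [Ca2+]i rise read by FLIPR fluorescence; pIC50 from curve fitting of half-maximal inhibition.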

| Compound | IC50 (human EP1 receptor [1]) [nM] | Ki (human EP1 receptor [2]) [nM] |
| --- | --- | --- |
| CC(C)COc1ccc(Cl)cc1Cc1ccc(-c2nc3ccc(CN4CCCCC4)cc3[nH]2)o1 [Example 147, 2-[5-({5-Chloro-2-[(2-methylpropyl)oxy]-phenyl}methyl)-2-furanyl]-5-(1-piperidinylmethyl)-1H-benzimidazoledihydrochloride] | ≤ 10 | < 1000 |
| O=C(O)c1ccc(Cc2cc(Cl)ccc2OCc2cc(F)c(F)cc2F)o1 [Example 25, Sodium 5-[(5-chloro-2-{[(2,4,5-trifluorophenyl)methyl]oxy}phenyl)methyl]-2-furancarboxylate] | ≤ 10 | ≤ 10 |
| CC(C)COc1ccc(Cl)cc1Cc1ccc(-c2nc3ccc(CO)cc3[nH]2)o1 [Example 132] | ≤ 10 | < 1000 |
| CC(C)COc1ccc(Cl)cc1Cc1ccc(C(=O)NCc2ccccc2)o1 [Example 57, 5-({5-Chloro-2-[(2-methylpropyl)oxy]-phenyl}methyl)-N-(phenylmethyl)-2-furancarboxamide] | ≤ 10 | ≤ 10 |
| CC(C)COc1ccc(Cl)cc1Cc1ccc(-c2nc3ccc(CCO)cc3[nH]2)o1 [Example 115, 2-{2-[5-({5-Chloro-2-[(2-methylpropyl)oxy]-phenyl}methyl)-2-furanyl]-1H-benzimidazol-5-yl}ethanolhydrochloride] | ≤ 10 | < 1000 |
| CCN1CCN(Cc2ccc3nc(-c4ccc(Cc5cc(Cl)ccc5OCC(C)C)o4)[nH]c3c2)CC1 [Example 146, 2-[5-({5-Chloro-2-[(2-methylpropyl)oxy]-phenyl}methyl)-2-furanyl]-5-[(4-ethyl-1-piperazinyl)methyl]-1H-benzimidazoletrihydrochloride] | ≤ 10 | < 1000 |
| CC(C)COc1ccc(Cl)cc1Cc1ccc(-c2nc3nccnc3[nH]2)o1 [Example 106, 2-[5-({5-Chloro-2-[(2-methylpropyl)oxy]-phenyl}methyl)-2-furanyl]-1H-imidazo[4,5-b]pyrazine] | ≤ 10 | ≤ 10 |
| O=C(O)c1ccc(Cc2cc(Cl)ccc2OCc2c(F)cc(F)cc2F)o1 [Example 20, Sodium 5-[(5-chloro-2-{[(2,4,6-trifluorophenyl)methyl]oxy}phenyl)methyl]-2-furancarboxylate] | ≤ 10 | < 1000 |
| OCc1ccc2nc(-c3ccc(Cc4cc(Cl)ccc4OCc4ccccc4)o3)[nH]c2c1 [Example 133, {2-[5-({5-Chloro-2-[(phenylmethyl)oxy]phenyl}methyl)-2-furanyl]-1H-benzimidazol-5-yl}methanol] | ≤ 10 | < 1000 |
| O=C(O)c1ccc(Cc2cc(Cl)ccc2OCC2CCCCC2)o1 [Example 6, Sodium 5-({5-chloro-2-[(cyclohexylmethyl)oxy]phenyl}methyl)-2-furancarboxylate] | ≤ 10 | < 1000 |
| O=C(O)c1ccc(Cc2cc(Cl)ccc2OCc2ccc(F)cc2)o1 [Example 21, Sodium 5-[(5-chloro-2-{[(4-fluorophenyl)methyl]oxy}phenyl)methyl]-2-furancarboxylate] | ≤ 10 | ≤ 10 |

Continued, values first:

| IC50 (human EP1 receptor [1]) [nM] | Ki (human EP1 receptor [2]) [nM] | Compound |
| --- | --- | --- |
| ≤ 10 | < 1000 | CC(C)COc1ccc(Cl)cc1Cc1ccc(-c2nc3ccc(N4CCOCC4)cc3[nH]2)o1 [Example 112, 2-[5-({5-Chloro-2-[(2-methylpropyl)oxy]-phenyl}methyl)-2-furanyl]-5-(4-morpholinyl)-1H-benzimidazoledihydrochloride] |
| ≤ 10 | < 1000 | COCCN(C)Cc1ccc2nc(-c3ccc(Cc4cc(Cl)ccc4OCC(C)C)o3)[nH]c2c1 [Example 148, N-({2-[5-({5-Chloro-2-[(2-methylpropyl)oxy]-phenyl}methyl)-2-furanyl]-1H-benzimidazol-5-yl}methyl)-N-methyl-2-(methyloxy)ethanaminedihydrochloride] |
| ≤ 10 | ≤ 10 | O=C(O)c1ccc(Cc2cc(Cl)ccc2OCc2ccccc2)o1 [Example 18, Sodium 5-({5-chloro-2-[(phenylmethyl)oxy]phenyl}methyl)-2-furancarboxylate] |
| ≤ 10 | < 1000 | CC(C)COc1ccc(Cl)cc1Cc1ccc(-c2nc3ccc(CN(C)CCC#N)cc3[nH]2)o1 [Example 149, 3-[({2-[5-({5-Chloro-2-[(2-methylpropyl)oxy]-phenyl}methyl)-2-furanyl]-1H-benzimidazol-5-yl}methyl)(methyl)-amino]propanenitriledihydrochloride] |
| ≤ 10 | < 1000 | CC(C)COc1ccc(Cl)cc1Cc1ccc(-c2nc3ccc(N(C)C)cc3[nH]2)o1 [Example 113, 2-[5-({5-Chloro-2-[(2-methylpropyl)oxy]-phenyl}methyl)-2-furanyl]-N,N-dimethyl-1H-benzimidazol-5-aminedihydrochloride] |
| ≤ 10 | < 1000 | CC(C)COc1ccc(Cl)cc1Cc1ccc(-c2nc3ccc(CNCCO)cc3[nH]2)o1 [Example 156, 2-[({2-[5-({5-Chloro-2-[(2-methylpropyl)oxy]-phenyl}methyl)-2-furanyl]-1H-benzimidazol-5-yl}methyl)amino]-ethanol] |
| ≤ 10 | < 1000 | O=C(O)c1ccc(Cc2cc(Cl)ccc2OCc2ccc(F)cc2F)o1 [Example 19, Sodium 5-[(5-chloro-2-{[(2,4-difluorophenyl)methyl]oxy}phenyl)methyl]-2-furancarboxylate] |
| ≤ 10 | ≤ 10 | O=C(O)c1ccc(Cc2cc(Cl)ccc2OC2CCCC2)o1 [Example 5, Sodium 5-{[5-chloro-2-(cyclopentyloxy)phenyl]methyl}-2-furancarboxylate] |
| ≤ 10 | < 1000 | CNCc1ccc2[nH]c(-c3ccc(Cc4cc(Cl)ccc4OCC(C)C)o3)nc2c1 [Example 166, ({2-[5-({5-Chloro-2-[(2-methylpropyl)oxy]phenyl}methyl)-2-furanyl]-1H-benzimidazol-5-yl}methyl)methylamine dihydrochloride] |
| ≤ 10 | < 1000 | CC(C)COc1ccc(Cl)cc1Cc1ccc(-c2nc3ccc(CN(C)C(C)C)cc3[nH]2)o1 [Example 151, N-({2-[5-({5-Chloro-2-[(2-methylpropyl)oxy]-phenyl}methyl)-2-furanyl]-1H-benzimidazol-5-yl}methyl)-N-methyl-2-propanaminedihydrochloride] |
| ≤ 10 | < 1000 | CC(C)COc1ccc(Cl)cc1Cc1ccc(-c2nc3cnccc3[nH]2)o1 [Example 117, 2-[5-({5-Chloro-2-[(2-methylpropyl)oxy]phenyl}-methyl)-2-furanyl]-1H-imidazo[4,5-c]pyridine] |
| ≤ 10 | < 1000 | CC(C)COc1ccc(Cl)cc1Cc1ccc(-c2nc3cc4cnn(C)c4cc3[nH]2)o1 [Example 107, 6-[5-({5-Chloro-2-[(2-methylpropyl)oxy]-phenyl}methyl)-2-furanyl]-1-methyl-1,5-dihydroimidazo[4,5-f]indazole] |
| ≤ 10 | < 1000 | CC(C)COc1ccc(Cl)cc1Cc1ccc(-c2nc3ccc(CCN4CCN(C)CC4)cc3[nH]2)o1 [Example 162, 2-[5-({5-Chloro-2-[(2-methylpropyl)oxy]-phenyl}methyl)-2-furanyl]-5-[2-(4-methyl-1-piperazinyl)ethyl]-1H-benzimidazoletrihydrochloride] |
| ≤ 10 | ≤ 10 | O=C(NS(=O)(=O)c1ccccc1)c1ccc(Cc2cc(Cl)ccc2OCc2ccc(F)cc2F)o1 [Example 35, 5-[(5-Chloro-2-{[(2,4-difluorophenyl)methyl]oxy}phenyl)methyl]-N-(phenylsulfonyl)-2-furancarboxamide] |
| ≤ 10 | < 1000 | Clc1ccc(OCc2ccccc2)c(Cc2ccc(-c3nc4ccccc4[nH]3)o2)c1 [Example 99, 2-[5-({5-Chloro-2-[(phenylmethyl)oxy]phenyl}methyl)-2-furanyl]-1H-benzimidazole] |
